How the values were obtained:
Rho-A = test: Ras GTP Binding Domain Inhibition Assay, Rho-A; settings: at 20 μM; without SOS
Procedure: (§1) A Ras Superfamily Activity Assay (as disclosed in International Application No. PCT/US2018/038613, filed Jun. 20, 2018, which is incorporated by reference in its entirety) was used as a specific assay to evaluate compounds against the following for the following Ras Superfamily proteins: KRas wild type, KRas Q61H mutant, KRas G12C mutant, KRas G12D mutant, Rac-1, and Rho-A.
(§2) Buffer-I: • 25 mM Tris-HCl, pH 7.4 • 27 mM KCl • 137 mM NaCl • 1 mM MgCl2 • 1 mM DTT
(§3) Buffer-IL: • 50 mM Tris-HCl, pH 7.0 • 1 mM MgCl2 • 1 mM DTT
(§4) The small GTPases proteins: KRas wild type. KRas Q61H mutant, KRas G12C mutant, KRas G12D mutants, Rac-1, and Rho-A were expressed as His-tagged proteins. In addition, the Guanosine nucleotide Exchange Factor (GEF) Sos protein (residues 556-1049) was expressed as a His-tagged protein. In cells, the guanine nucleotide exchange factor Sos protein promotes activation of Ras proteins by stimulating an exchange of GDP for GTP. The inclusion of Sos to the Ras GTP binding domain inhibition assay may be considered as an alternative representation of physiological cellular conditions for evaluating the inhibitory activity of some of the tested small molecules.
(§5) For the assay, all purified small GTPases proteins were diluted in Buffer-I or Buffer-II to a final concentration of 10-30 μg/mL. 200 μL of each diluted protein was added to a nickel-coated 96-well plate and incubated overnight at 4° C. Then the protein solution was discarded and 200 μL of Buffer-I or Buffer-II was added to each well in the presence of 1% DMSO. Compounds to be tested were added to the protein-coated wells at final concentration of 20 μM, and incubated for 3 hours at room temperature with and without 10-30 μg/mL of Sos added to the final hour of the incubation. When performing IC50 measurements a serial dilution of all tested concentrations was added. Then Cy3-GTP or Cy5-GTP was added to each well to a final concentration of 100 nM. The labeled GTP was incubated for 45 minutes at room temperature. Following GTP incubation, wells were washed 3× in Buffer-I or Buffer-II and 200 μL of Buffer-I or Buffer-II was added to each well. Following washes, the amount of bound labeled-GTP was measured using a SpectraMax M3 (Molecular Devices).

IL-6 = test: Mouse IL6 Quantification Assay (LPS-stimulated RAW 264.7); type: cell-based; design: dose or concentration left out as unconfirmed; settings: RAW264.7, ELISA, read-out: IL-6: % inh.
TNFα = test: Mouse TNF Alpha Quantification Assay (LPS-stimulated RAW 264.7); type: cell-based; design: dose or concentration left out as unconfirmed; settings: RAW264.7, ELISA, read-out: TNFα: % inh.
KRas wild type = test: Ras GTP Binding Domain Inhibition Assay, KRas wild type; settings: at 20 μM; for KRas wild type + SOS: % inh.: with SOS; for KRas wild type: % inh.: without SOS
Procedure: as §1, §2, §3, §4, §5

KRas G12D mutant = test: Ras GTP Binding Domain Inhibition Assay, KRas G12D mutant; settings: at 20 μM; for KRas G12D mutant + SOS: % inh.: with SOS; for KRas G12D mutant: % inh.: without SOS
Procedure: as §1, §2, §3, §4, §5

KRas G12C mutant = test: Ras GTP Binding Domain Inhibition Assay, KRas G12C mutant; settings: at 20 μM; for KRas G12C mutant + SOS: % inh.: with SOS; for KRas G12C mutant: % inh.: without SOS
Procedure: as §1, §2, §3, §4, §5

| Rho-A: % inh. (Rho-A) | KRas wild type + SOS: % inh. (KRas wild type) | KRas wild type: % inh. (KRas wild type) | KRas G12D mutant + SOS: % inh. (KRas G12D mutant; Table 7) | KRas G12D mutant + SOS: % inh. (KRas G12D mutant; Table 8) | KRas G12D mutant: % inh. (KRas G12D mutant; Table 7) | KRas G12D mutant: % inh. (KRas G12D mutant; Table 8) | KRas G12C mutant + SOS: % inh. (KRas G12C mutant) | KRas G12C mutant: % inh. (KRas G12C mutant) | Structure (SMILES) | inhibition (IL-6) [%] | inhibition (TNFα) [%] |
| --- | --- | --- | --- | --- | --- | --- | --- | --- | --- | --- | --- |
| C (C = 46-75% inhibition) | D (D = 76-100% inhibition) | D (D = 76-100% inhibition) | D (D = 76-100% inhibition) | D (D = 76-100% inhibition) | C (C = 46-75% inhibition) | C (C = 46-75% inhibition) | D (D = 76-100% inhibition) | D (D = 76-100% inhibition) | COCCn1ccc(-c2sc3nc(-c4nccn4C)nc(N[C@@H]4CC[C@H](OC)C4)c3c2C)n1 (racemic) [Compound 39, rac-N-((1R,3S)-3-Methoxycyclopentyl)-6-(1-(2-methoxyethyl)-1H-pyrazol-3-yl)-5-methyl-2-(1-methyl-1H-imidazol-2-yl)thieno[2,3-d]pyrimidin-4-amine] | 26 to 45 | 0 |
| – | – | – | – | – | – | – | – | – | CO[C@H]1CNC[C@@H](Nc2nc(-c3nccn3C)nc3sc(-c4ccn(C(C)C)n4)cc23)C1 [Compound 28, 6-(1-Isopropyl-1H-pyrazol-3-yl)-N-((3S,5R)-5-methoxypiperidin-3-yl)-2-(1-methyl-1H-imidazol-2-yl)thieno[2,3-d]pyrimidin-4-amine] | 76 to 100 | 46 to 75 |
| D (D = 76-100% inhibition) | C (C = 46-75% inhibition) | C (C = 46-75% inhibition) | C (C = 46-75% inhibition) | C (C = 46-75% inhibition) | D (D = 76-100% inhibition) | D (D = 76-100% inhibition) | C (C = 46-75% inhibition) | C (C = 46-75% inhibition) | COc1cccc(Nc2nc(-c3nccn3C)nc3sc(-c4ccn(C(C)C)n4)c(C)c23)n1 [Compound 18, 6-(1-Isopropyl-1H-pyrazol-3-yl)-N-(6-methoxypyridin-2-yl)-5-methyl-2-(1-methyl-1H-imidazol-2-yl)thieno[2,3-d]pyrimidin-4-amine] | 26 to 45 | 0 |
| C (C = 46-75% inhibition) | C (C = 46-75% inhibition) | D (D = 76-100% inhibition) | C (C = 46-75% inhibition) | C (C = 46-75% inhibition) | B (B = 26-45% inhibition) | B (B = 26-45% inhibition) | C (C = 46-75% inhibition) | C (C = 46-75% inhibition) | CO[C@H]1C[C@H](CNc2nc(-c3nccn3C)nc3sc(-c4ccn(C(C)C)n4)c(C)c23)C1 [Compound 16, 6-(1-Isopropyl-1H-pyrazol-3-yl)-N-(((1r,3r)-3-methoxycyclobutyl)methyl)-5-methyl-2-(1-methyl-1H-imidazol-2-yl)thieno[2,3-d]pyrimidin-4-amine] | 46 to 75 | 1 to 25 |
| C (C = 46-75% inhibition) | D (D = 76-100% inhibition) | D (D = 76-100% inhibition) | D (D = 76-100% inhibition) | D (D = 76-100% inhibition) | B (B = 26-45% inhibition) | B (B = 26-45% inhibition) | D (D = 76-100% inhibition) | C (C = 46-75% inhibition) | COc1cccc(-c2sc3nc(-c4nccn4C)nc(N[C@H]4C[C@H](OC)C4)c3c2C)c1F [Compound 42, 6-(2-Fluoro-3-methoxyphenyl)-N-((1r,3r)-3-methoxycyclobutyl)-5-methyl-2-(1-methyl-1H-imidazol-2-yl)thieno[2,3-d]pyrimidin-4-amine] | 46 to 75 | 0 |
| D (D = 76-100% inhibition) | D (D = 76-100% inhibition) | D (D = 76-100% inhibition) | D (D = 76-100% inhibition) | D (D = 76-100% inhibition) | D (D = 76-100% inhibition) | D (D = 76-100% inhibition) | D (D = 76-100% inhibition) | C (C = 46-75% inhibition) | COCCOCCNc1nc(-c2nccn2C)nc2sc(-c3ccn(C(C)C)n3)c(C)c12 [Compound 21, 6-(1-Isopropyl-1H-pyrazol-3-yl)-N-(2-(2-methoxyethoxy)ethyl)-5-methyl-2-(1-methyl-1H-imidazol-2-yl)thieno[2,3-d]pyrimidin-4-amine] | 46 to 75 | 1 to 25 |
| D (D = 76-100% inhibition) | D (D = 76-100% inhibition) | D (D = 76-100% inhibition) | D (D = 76-100% inhibition) | D (D = 76-100% inhibition) | D (D = 76-100% inhibition) | D (D = 76-100% inhibition) | D (D = 76-100% inhibition) | C (C = 46-75% inhibition) | COCC1CN(c2nc(-c3nccn3C)nc3sc(-c4ccn(C(C)C)n4)c(C)c23)CCO1 (racemic) [Compound 15, rac-4-(6-(1-Isopropyl-1H-pyrazol-3-yl)-5-methyl-2-(1-methyl-1H-imidazol-2-yl)thieno[2,3-d]pyrimidin-4-yl)-2-(methoxymethyl)morpholine] | 46 to 75 | 76 to 100 |
| C (C = 46-75% inhibition) | D (D = 76-100% inhibition) | D (D = 76-100% inhibition) | D (D = 76-100% inhibition) | D (D = 76-100% inhibition) | D (D = 76-100% inhibition) | D (D = 76-100% inhibition) | D (D = 76-100% inhibition) | D (D = 76-100% inhibition) | COCCO[C@H]1CC[C@@H](Nc2nc(-c3nccn3C)nc3sc(-c4ccn(C(C)C)n4)c(C)c23)C1 (racemic) [Compound 20, rac-6-(1-Isopropyl-1H-pyrazol-3-yl)-N-((1R,3S)-3-(2-methoxyethoxy)cyclopentyl)-5-methyl-2-(1-methyl-1H-imidazol-2-yl)thieno[2,3-d]pyrimidin-4-amine] | 76 to 100 | 46 to 75 |
| B (B = 26-45% inhibition) | – | C (C = 46-75% inhibition) | – | – | C (C = 46-75% inhibition) | C (C = 46-75% inhibition) | – | B (B = 26-45% inhibition) | COCCN(C)c1nc(-c2nccn2C)nc2sc(-c3ccccc3)c(-c3ccccc3)c12 [Compound 2, N-(2-Methoxyethyl)-N-methyl-2-(1-methyl-1H-imidazol-2-yl)-5,6-diphenylthieno[2,3-d]pyrimidin-4-amine] | – | – |
